This note sets out measurements from patent US10273283B2, “Modified integrin polypeptides, modified integrin polypeptide dimers, and uses thereof” (THE CHILDREN'S MEDICAL CENTER CORPORATION, priority 2014, dated 2019).

Ends that are not written are not given here.

In one experiment the target is T1, αvβ6 headpiece (Homo sapiens, UniProt P06756+P18564, I287C/M430C).
T1 construct: The αv headpiece (residues 1-594) with M400C mutation was followed by a 3C protease site; β6 headpiece residues 1-474 with I270C or β3 headpiece residues 1-472 with Q267C were followed by the 3C site; 3C protease site (C, cleaved yes); ACID coiled-coil (C, cleaved yes); Strep-II tag (C, cleaved yes); His tag (C, cleaved yes); 3C site (C, cleaved yes); BASE coiled-coil (C, cleaved yes); made in house; host or cells: HEK293s Gnt I- cells
In words: Competition binding with FITC-[…] by fluorescence anisotropy, αvβ6 headpiece. To be noted: FIG. 1C. How it is done:
(§1) Ligands bind to the integrin headpiece, which contains the α-subunit β-propeller domain and thigh domain, and the β-subunit βI, hybrid, PSI, and EGF1 domain. […] (SEQ ID NO: 68), peptide affinity for the αvβ6 and αvβ3 headpiece was measured with fluorescence anisotropy.
(§2) Binding affinities were calculated as described in Ref. 23. […] Competition binding assays used 200 nM αvβ6 or 4 μM αvβ3 headpiece, 5 nM of fluorescence probe, and competing peptide serially diluted in 3-fold decrement from 500 μM to 0.5 nM.
For orientation: In fluorescence polarisation assays a small probe gives low polarisation when free and higher when bound to something large.

The target in a further experiment is T2, integrin αvβ6 headpiece (Homo sapiens, UniProt P06756+P18564, I287C/M430C).
T2 construct: The αv headpiece (residues 1-594) with M400C mutation was followed by a 3C protease site; β6 headpiece residues 1-474 with I270C or β3 headpiece residues 1-472 with Q267C were followed by the 3C site; 3C protease site (C, cleaved yes); ACID coiled-coil (C, cleaved yes); Strep-II tag (C, cleaved yes); His tag (C, cleaved yes); 3C site (C, cleaved yes); BASE coiled-coil (C, cleaved yes); made in house; host or cells: HEK293s Gnt I- cells
In words: Saturation binding of fluorescence probe to αvβ6 headpiece by fluorescence anisotropy. To be noted: buffer at indicated pH, FIG. 2C. How it is done:
A fluorescence probe for integrin αvβ6, the sequence of which is FITC-[…] (SEQ ID NO: 68), was synthesized. […] By competition binding assay, the affinities of Different Ligands were Measured.
Fluorescence anisotropy was in 150 mM NaCl, 1 mM Mg^2+/Ca^2+, 20 mM HEPES, pH 7.4 or buffer at indicated pH with 5 nM fluorescence probe (FITC-pro-TGF-β3 peptide, FITC-[…] (SEQ ID NO: 68)). Binding affinities were calculated as described in Ref. 23. In saturation binding assays, the anisotropy of the fluorescence probe was measured while αvβ6 headpiece (starting at 2.67 μM) or αvβ3 headpiece (starting at 75 μM) was serially diluted in 3-fold decrements. Competition binding assays used 200 nM αvβ6 or 4 μM αvβ3 headpiece, 5 nM of fluorescence probe, and competing peptide serially diluted in 3-fold decrement from 500 μM to 0.5 nM.

A further experiment deals with T3, αvβ3 headpiece (Homo sapiens, UniProt P05106+P06756, M430C/Q293C).
T3 construct: The αv headpiece (residues 1-594) with M400C mutation was followed by a 3C protease site; β6 headpiece residues 1-474 with I270C or β3 headpiece residues 1-472 with Q267C were followed by the 3C site; 3C protease site (C, cleaved yes); ACID coiled-coil (C, cleaved yes); Strep-II tag (C, cleaved yes); His tag (C, cleaved yes); 3C site (C, cleaved yes); BASE coiled-coil (C, cleaved yes); made in house; host or cells: HEK293s Gnt I- cells
The experiment can be described thus: Competition binding with FITC-[…] by fluorescence anisotropy, αvβ3 headpiece. To be noted: FIG. 1D. How it is done:
as §1, §2

TSGDQKTIK [pro-TGF-β2 peptide]: at αvβ6 headpiece, the “Fold lower affinity for αvβ6 than the pro-TGF-β1/β3 peptides” value is recorded as 1,000 fold. In the case of “GRGDLGRLK [pro-TGF-β3 nonapeptide, GRGDLGRLK (SEQ ID NO: 75)]”, on integrin αvβ6 headpiece, the “Effect of pH on affinity of αvβ6 for the peptide” value is “sharp decrease in affinity between pH 7 and 6”. Moreover, the “Fold lower affinity for αvβ3 than for αvβ6” value at αvβ3 headpiece was 1,000 fold.
